The values that follow come from patent publication US5563142A, “Diaromatic substituted compounds as anti-HIV-1 agents” (The Upjohn Company, priority 1994, dated 1996).

For orientation: inhibition means the relative decrease from the control value, in per cent.

Molecules are shown by their SMILES.

The target of the first test is T1, viral reverse transcriptase (Human immunodeficiency virus type 1 group M subtype B, UniProt P04585).
T1 construct: Viral reverse transcriptase is found in extracts from bacterial clones; made in house; host or cells: Escherichia coli (extracts of bacterial clones, by the procedure of Larder et al., EMBO J. 6:3133-3137, 1987)
The test is described as follows: Viral reverse transcriptase inhibition, cell free assay. Format: biochemical, human immunodeficiency virus (HIV-1). The following applies: 100 μM; poly rC or poly rG template. An excerpt: The utility of the diaromatic substituted piperazines (III), the anti-AIDS piperazines (IV) and the indoles (V) of this invention can be determined by their ability to inhibit viral reverse transcriptase, an enzyme essential for human immunodeficiency virus replication. This enzyme has characteristics which differentiate it from other known cellular polymerases and it is a unique enzyme which is not found in uninfected cells. Viral reverse transcriptase is found in extracts from bacterial clones prepared according to the procedure described in AIDS Virus Reverse Transcriptase defined by high level expression in Escherichia coli, EMBO J. 6:3133-3137 (1987). Inhibition of this enzyme is determined in a cell free assay which measures the level of radioactive precursors incorporated into DNA. Extracts prepared according to the procedure of Science, 1125-1129 (1981) are incubated in a mixture of inhibitor, 20 mM dithiothreitol, 60 mM sodium chloride, 0.05% NP-40, 10 mM magnesium chloride, 50 mM Tris pH 8.3, 10 μM [^35 S]-labeled deoxynuleoside-5'-triphosphate, 10 μg/ml RNA template (poly rC or poly rG) and 5 μg/ml DNA primer (oligo dG or oligo dT) for 30 minutes at 37° C. Incorporation of radio-labeled percursor is determined by spotting aliquots of the reaction mixture on DE81 paper, washing the papers to remove unincorporated percursor, drying and determining counts. The results (IC50 means the concentration, in μM of drug, required to inhibit the reverse transcriptase activity to the extent of 50%) of various assay(s) are combined and reported as % inhibition and IC50 (calculated).
^1 Viral reverse transcriptase is found in extracts from bacterial
clones prepared according to the procedure described by Larder, B.,
Purifoy D., Powell, K. and Darby, G., AIDS virus reverse transcriptase
defined by high level expression in Escherichia coli., EMBO J. 6,
3133-3137 (1987). Inhibition of this enzyme is determined in a cell free
assay which measures the level of radioactive precursors incorporated int
DNA. Extracts prepared according to the procedure of Kleid, D. G., et
al., Science, 1125-1129 (1981) are incubated in a mixture of inhibitor, 2
mM dithiothreitol, 60 mM sodium chloride, 0.05% NP40, 10 mM magnesium
chloride, 50 mM Tris pH 8.3, 10 μM [^35 Slabeled
deoxynucleoside5triphosphate, 10 μg/ml RNA template (poly rC or poly
rG) and 5 μg/ml DNA primer (oligo dG or oligo dT) for 15 minutes at
37°. Incorporation of radio labeled precursor is determined by
harvesting the trichloroacetic acid precipitated reaction mixtures on
glass fiber filters, drying, and determining counts. The results of
various assays are combined and reported as % inhibition at a 100 μM
Take `CC(C)Nc1cccnc1N1CCN(C(=O)c2cc3cc(OCC(=O)O)ccc3[nH]2)CC1` [Example 68, 1-[5-(Carboxymethoxy)indolyl-2-carbonyl]-4-[3-(1-methylethylamino)-2-pyridinyl]piperazine]: the “RT % INHIBITION (100 μM)” value is 78-95%.

The test is the same for the next values; noted with them: read-out: RT % INHIBITION (100 μM), 100 μM; poly rC or poly rG template.
As for `CCNc1cccnc1N1CCN(C(=O)c2cc3cc(OCc4ccccc4)ccc3[nH]2)CC1` [Example 35, 1-[5-Benzyloxyindolyl-2-carbonyl]-4-[3-(ethylamino)-2-pyridinyl]piperazine], the inhibition at 100 µM lay within 57 to 70%.
For the molecule `CC(C)(C)Nc1nccnc1N1CCN(C(=O)c2cc3cc(F)ccc3[nH]2)CC1` [Example 51, 1-[5-Fluoroindolyl-2-carbonyl]-4-[3-(1,1-dimethylethylamino)-2-pyrazinyl]piperazine], the inhibition at 100 µM came to 55%.
As for `O=C(c1cc2ccccc2[nH]1)N1CCN(c2nccnc2NC2CC2)CC1` [Example 57, 1-(Indolyl-2-carbonyl)-4-(3-cyclopropylamino-2-pyrazinyl)piperazine], the inhibition at 100 µM is 52 to 65%.
Same read-out and setting: the figure for `CC(C)Nc1cccnc1OCCOC(=O)c1cc2ccccc2[nH]1` [Example 59, 2-(2-(Indolyl-2-carboxy)ethoxy)-3-(1-methylethylamino)pyridine] is 61 to 75%.
The same measure, in the same setting: then `CC(C)Nc1cccnc1N1CCN(C(=O)c2cc3cc(OCC(=O)OCc4ccccc4)ccc3[nH]2)CC1` [Example 67, 1-[5-(Benzyloxycarbonylmethoxy)indolyl-2-carbonyl]-4-[3-(1-methylethylamino)-2-pyridinyl]piperazine], with 60 to 84%; and `COc1c(C)cc(C(=O)N2CCN(c3ncccc3NC(C)C)CC2)cc1C` [Example 78, 1-[3,5-Dimethyl-4-methoxybenzoyl]-4-[3-(1-methylethylamino)-2-pyridinyl]piperazine], with 74%.
Still for that read-out and setting: then `CCNc1cccnc1N1CCN(Cc2cc3cc(OC)ccc3[nH]2)CC1` [Example 80], with 61 to 70%; and `CC(C)Nc1cccnc1N1CCN(C(=O)c2cc3cc(Br)ccc3[nH]2)CC1` [Example 93, 1-[5-Bromoindolyl-2-carbonyl]-4-[3-(1-methylethylamino)-2-pyridinyl]piperazine], with 87%; and `CCC(CC)Nc1cccnc1N1CCN(C(=O)c2cc3ccccc3[nH]2)CC1` [Example 100], with 81 to 82%.
`COc1ccc2[nH]c(C(=O)N(C)CCN(C)c3ncccc3NC(C)C)cc2c1` [Example 107, N,N'-Dimethyl-N-(5-methoxyindolyl-2-carbonyl)-N'-[3-(1-methylethylamino)-2-pyridyl]ethylenediamine]: the inhibition at 100 µM lay within 77 to 87%.
Still for that read-out and setting: the figure for `CC(C)Nc1cccnc1N(C)CCN(C)C(=O)c1cc2cc(F)ccc2[nH]1` [Example 108, N,N'-Dimethyl-N-(5-fluoroindolyl-2-carbonyl)-N'-(3-(1-methylethylamino)-2-pyridyl)ethylenediamine] is 77 to 89%; for `CC(C)Nc1cccnc1N1CCN(C(=O)c2cc3cccnc3[nH]2)CC1` [Example 109] it is 56 to 82%; for `CCNc1cccnc1N(C)CCCN(C)C(=O)c1cc2ccccc2[nH]1` [Example 111] it is 86 to 92%.
With `CCNc1cccnc1N(C)CCCCCCN(C)C(=O)c1cc2ccccc2[nH]1` [Example 112], the inhibition at 100 µM lay within 74 to 82%.
In the case of `CC(C)Nc1cccnc1N1CCN(C(=O)c2cc3ccc(C=O)cc3[nH]2)CC1` [Example 113], the inhibition at 100 µM lay in the range of 92 to 96%.
Still for that read-out and setting: the figure for `O=C(c1cc2ccccc2[nH]1)N1CCN(c2ncccc2NCCF)CC1` [Example 117, 1-[Indolyl-2-carbonyl]-4-[3(2-fluoroethylamino)-2-pyridinyl]piperazine] is 92%.
For `CC(C)(C)Nc1ccnnc1N1CCN(C(=O)c2cc3cc(OCc4ccccc4)ccc3[nH]2)CC1` [Example 119, 1-[5-Benzyloxyindolyl-2-carbonyl]-4-[4-(1,1-dimethylethylamino)-2-pyridazinyl]piperazine], the inhibition at 100 µM lay in the range of 53 to 58%.
With `CC(C)(C)Nc1ccnnc1N1CCN(C(=O)c2cc3cc(O)ccc3[nH]2)CC1` [Example 120, 1-[5-Hydroxyindolyl-2-carbonyl]-4-[4-(1,1-dimethylethylamino)-2-pyridazinyl]piperazine], the inhibition at 100 µM lay in the range of 87 to 90%.
With `CC(C)Nc1cccnc1N1CCN(C(=O)c2cc3ccc4ccccc4c3[nH]2)CC1` [Example 121, 1-[Benz[g]indolyl-2-carbonyl]-4-[3-(1-methylethylamino)-2-pyridinyl]piperazine], the inhibition at 100 µM is 64 to 70%.
The same measure, in the same setting: the figure for `CC(C)Nc1cccnc1N1CCN(C(=O)c2cc3c(ccc4ccccc43)[nH]2)CC1` [Example 122, 1-[Benz[e]indolyl-2-carbonyl]-4-[3-(1-methylethylamino)-2-pyridinyl]piperazine] is 84%; for `CCNc1cccnc1N(C)CCN(C)C(=O)c1cc2ccccc2[nH]1` [Example 123, N,N'-Dimethyl-N-(indolyl-2-carbonyl)-N'-(3-ethylamino-2-pyridyl)ethylenediamine] it is 47 to 60%.
As for `CC(C)Nc1cccnc1N1CCN(C(=O)c2cccc3cc[nH]c23)CC1` [Example 128, 1-[Indolyl-7-carbonyl]-4-[3-(1-methylethylamino)-2-pyridinyl]-piperazine], the inhibition at 100 µM was in the range of 89 to 98%.
On the same count and under the same terms, then `CC(C)Nc1cccnc1N1CCN(C(=O)c2cccc3c2NCC3)CC1` [Example 129, 1-[2,3-Didehydroindolyl-7-carbonyl]-4-[3-(1-methylethylamino)-2-pyridinyl]piperazine], with 68 to 84%.
Consider `CCNc1cccnc1N1CCN(C(=O)c2cccc3c2NCC3)CC1` [Example 130], for which the inhibition at 100 µM was 48 to 59%.
Still for that read-out and setting: the figure for `CC(C)Nc1cccnc1N(C)C1CCN(C(=O)c2cc3ccccc3[nH]2)CC1` [Example 131, 1-(Indolyl-2-carbonyl)-4-(N-methyl-N-(3-(1-methylethylamino)-2-pyridinyl)amino)piperidine] is 85 to 97%.
